Test results from US20260265220A1, “GALPHA12 INHIBITORS AND METHODS USING SAME” (RUTGERS, THE STATE UNIVERSITY OF NEW JERSEY, priority 2022, published 2026).
Where “and” joins values, the source holds several entries; their conditions need not be identical. Equal entries are not always repeated. Entries after “also recorded” stand apart in the source; their conditions may differ. Where two headings read alike, the source gives them in different places. Each block holds one compound with its values, some of them ahead of it.

Experiments:
[1] = system: MLC phosphorylation (pMLC); experiment: Immunoblot analysis of myosin light chain phosphorylation (pMLC) in airway smooth muscle cells; assay type: cell-based, human; settings: for agonist specificity of the effect on pMLC activation: carbachol versus histamine; for potency and efficacy on carbachol-induced pMLC activation: relative to the parent compound 1 (BDF)
Experimental: (§1) Compounds 1-3 were evaluated for inhibition of AKT and MLC phosphorylation. As described elsewhere herein, phosphorylation of AKT and/or MLC can occur with activation of the Gα12 pathway. Accordingly, in certain embodiments, detection of a decrease in pAKT and/or pMLC indicates inhibition of Gα12.
(§2) The immunoblot analysis of phosphorylation of myosin light chain (pMLC) was used as a surrogate for ASM contraction. In parallel, phosphorylation of AKT was analogously assessed. AKT is a downstream substrate for phosphoinositide 3-kinase (PI3K) activity, can modulate the activation of the Gα12 pathway in primary human airway smooth muscle cells. These cells are the pivotal cells regulating bronchomotor tone in asthma and chronic obstructive pulmonary disease (COPD) which is emphysema or chronic bronchitis.
(§3) The analogues described herein were further assessed for potency and efficacy in inhibiting AKT and pMLC phosphorylation induced by contractile agonists, carbachol, or histamine. These contractile agonists are pivotal in causing airway smooth muscle contraction and airway obstruction in asthma and COPD.

[2] = system: AKT phosphorylation (pAKT); experiment: Immunoblot analysis of AKT phosphorylation (pAKT) in airway smooth muscle cells; assay type: cell-based, human
Experimental: as §1, §2, §3

Gα12 = molecular target: T1, Gα12 (Homo sapiens, UniProt Q03113); experiment: Gα12 luciferase reporter assay in hTERT-SRE immortalized airway smooth muscle cells, carbachol stimulated; assay type: cell-based; settings: carbachol (CCh) stimulated, dose response
T1 sequence (Q03113 1-381): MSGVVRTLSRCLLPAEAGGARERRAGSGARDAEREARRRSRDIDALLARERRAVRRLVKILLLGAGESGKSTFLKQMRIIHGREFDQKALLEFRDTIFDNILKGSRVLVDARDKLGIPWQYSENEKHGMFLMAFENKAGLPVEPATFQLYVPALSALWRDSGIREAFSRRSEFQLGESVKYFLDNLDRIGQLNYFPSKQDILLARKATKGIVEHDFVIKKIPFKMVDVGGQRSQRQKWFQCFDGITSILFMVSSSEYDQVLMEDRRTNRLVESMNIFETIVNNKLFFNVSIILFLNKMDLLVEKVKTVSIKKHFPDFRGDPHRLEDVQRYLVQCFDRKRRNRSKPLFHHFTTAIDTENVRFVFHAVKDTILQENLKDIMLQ
Excerpt: FIGS. 1A-1C show an experimental approach to the identification of Gα12 modulators using hTERT-SRE human telomerase reverse transcriptase immortalized airway smooth muscle cells. FIG. 1A: provides a schematic representation of Gα12-activated luciferase reporter. […] FIG. 1C: provides a detailed schematic showing the downstream effects of Gα12/13 activation and/or inhibition, wherein serum response element (SRE) may be detected by a luciferase assay, and pAKT and pMLC may be detected by Western blotting. A Gα12 luciferase reporter assay was used to evaluate the potential of analogues of compound 1 as bronchodilators (FIGS. 2A-2C), wherein the assay utilized hTERT-SRE telomerase reverse transcriptase immortalized airway smooth muscle cells. In certain embodiments, the Gα12 pathway is activated with carbachol (CCh), resulting in downstream transcription of a […]/luciferase fusion protein (FIG. 1A), and consequently, a fluorescence signal (FIG. 1B). In certain embodiments, detection of a decrease in observed fluorescent signal indicates inhibition of Gα12. Further, activation of the Gα12 pathway results in elevated levels of phosphorylated AKT (pAKT) and MLC (pMLC) (FIG. 1C). In certain embodiments, detection of a decrease in pAKT and/or pMLC indicates inhibition of Gα12.

113 unique human kinases = experiment: Eurofins kinase activity panel; assay type: biochemical; settings: 1, 10 and 100 μM
Experimental: (§4) Using the Eurofins™ platform, a kinase activity assay was performed to identify human kinases inhibited by compound 1. To determine the effects of the compound on kinase activity, varying concentrations of compound 1 (1, 10 and 100 μM) were used with one technical replicate in a standard in vitro kinase activation assay.
(§5) This platform was used to determine the effects of compound 1 on the activity of 113 unique human kinases. Thresholds for kinase activity of interest was set at less than or equal to 60% […] (i.e., for antagonists) or enhanced activity at or above 140% (i.e., for agonists). Further, the validity of the results were confirmed by the occurrence of a dose-dependent response.

IGF-1R(h) = molecular target: T2, IGF-1R(h) (Homo sapiens, UniProt P08069); experiment: Eurofins in vitro kinase activity assay; assay type: biochemical; settings: read-out: IGF-1R(h) kinase activity (human kinase inhibition data)
T2 construct: purchased Eurofins
Experimental: as §4, §5

TrkA(h) = molecular target: T3, TrkA(h) (Homo sapiens, UniProt P04629); experiment: Eurofins in vitro kinase activity assay; assay type: biochemical; settings: read-out: TrkA(h) kinase activity (human kinase inhibition data)
T3 construct: purchased Eurofins
Experimental: as §4, §5

PI3Kδ = molecular target: T4, PI3Kδ (Homo sapiens, UniProt O00329); experiment: Eurofins in vitro kinase activity assay; assay type: biochemical
T4 construct: purchased Eurofins
Experimental: as §4, §5

mTOR(h) = molecular target: T5, mTOR(h) (Homo sapiens, UniProt P42345); experiment: Eurofins in vitro kinase activity assay; assay type: biochemical; settings: read-out: mTOR(h) kinase activity (human kinase inhibition data)
T5 construct: purchased Eurofins
Experimental: as §4, §5

MAPKAP-K2(h) = molecular target: T6, MAPKAP-K2(h) (Homo sapiens, UniProt P49137); experiment: Eurofins in vitro kinase activity assay; assay type: biochemical
T6 construct: purchased Eurofins
Experimental: as §4, §5

PRAK(h)/MAPKAPK5 = molecular target: T7, PRAK(h)/MAPKAPK5 (Homo sapiens, UniProt Q8IW41); experiment: Eurofins in vitro kinase activity assay; assay type: biochemical
T7 construct: purchased Eurofins
T7 sequence (Q8IW41 1-473): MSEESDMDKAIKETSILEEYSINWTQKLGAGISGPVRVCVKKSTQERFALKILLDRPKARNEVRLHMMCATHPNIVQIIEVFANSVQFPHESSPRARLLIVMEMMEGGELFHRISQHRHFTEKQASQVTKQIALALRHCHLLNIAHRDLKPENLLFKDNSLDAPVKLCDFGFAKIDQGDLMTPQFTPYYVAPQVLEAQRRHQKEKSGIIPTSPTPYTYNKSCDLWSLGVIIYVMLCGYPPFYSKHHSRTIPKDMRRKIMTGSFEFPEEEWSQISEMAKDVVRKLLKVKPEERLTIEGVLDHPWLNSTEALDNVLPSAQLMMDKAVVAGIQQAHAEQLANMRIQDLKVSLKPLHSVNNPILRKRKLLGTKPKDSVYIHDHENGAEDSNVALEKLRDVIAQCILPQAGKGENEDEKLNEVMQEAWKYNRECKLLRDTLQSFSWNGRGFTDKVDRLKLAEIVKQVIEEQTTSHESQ
Experimental: as §4, §5

ATR/ATRIP(h) = molecular target: T8, ATR/ATRIP(h) (Homo sapiens, UniProt Q13535); experiment: Eurofins in vitro kinase activity assay; assay type: biochemical; settings: read-out: ATR/ATRIP(h) kinase activity (human kinase inhibition data)
T8 construct: purchased Eurofins
Experimental: as §4, §5

Fms(h) = molecular target: T9, Fms(h) (Homo sapiens, UniProt P07333); experiment: Eurofins in vitro kinase activity assay; assay type: biochemical; settings: read-out: Fms(h) kinase activity (human kinase inhibition data)
T9 construct: purchased Eurofins
Experimental: as §4, §5

[3] = compound at 100 μM (FIGS. 4C-4D)
[4] = compound at 100 μM (FIGS. 4A-4B)

T2 sequence (P08069 31-1367): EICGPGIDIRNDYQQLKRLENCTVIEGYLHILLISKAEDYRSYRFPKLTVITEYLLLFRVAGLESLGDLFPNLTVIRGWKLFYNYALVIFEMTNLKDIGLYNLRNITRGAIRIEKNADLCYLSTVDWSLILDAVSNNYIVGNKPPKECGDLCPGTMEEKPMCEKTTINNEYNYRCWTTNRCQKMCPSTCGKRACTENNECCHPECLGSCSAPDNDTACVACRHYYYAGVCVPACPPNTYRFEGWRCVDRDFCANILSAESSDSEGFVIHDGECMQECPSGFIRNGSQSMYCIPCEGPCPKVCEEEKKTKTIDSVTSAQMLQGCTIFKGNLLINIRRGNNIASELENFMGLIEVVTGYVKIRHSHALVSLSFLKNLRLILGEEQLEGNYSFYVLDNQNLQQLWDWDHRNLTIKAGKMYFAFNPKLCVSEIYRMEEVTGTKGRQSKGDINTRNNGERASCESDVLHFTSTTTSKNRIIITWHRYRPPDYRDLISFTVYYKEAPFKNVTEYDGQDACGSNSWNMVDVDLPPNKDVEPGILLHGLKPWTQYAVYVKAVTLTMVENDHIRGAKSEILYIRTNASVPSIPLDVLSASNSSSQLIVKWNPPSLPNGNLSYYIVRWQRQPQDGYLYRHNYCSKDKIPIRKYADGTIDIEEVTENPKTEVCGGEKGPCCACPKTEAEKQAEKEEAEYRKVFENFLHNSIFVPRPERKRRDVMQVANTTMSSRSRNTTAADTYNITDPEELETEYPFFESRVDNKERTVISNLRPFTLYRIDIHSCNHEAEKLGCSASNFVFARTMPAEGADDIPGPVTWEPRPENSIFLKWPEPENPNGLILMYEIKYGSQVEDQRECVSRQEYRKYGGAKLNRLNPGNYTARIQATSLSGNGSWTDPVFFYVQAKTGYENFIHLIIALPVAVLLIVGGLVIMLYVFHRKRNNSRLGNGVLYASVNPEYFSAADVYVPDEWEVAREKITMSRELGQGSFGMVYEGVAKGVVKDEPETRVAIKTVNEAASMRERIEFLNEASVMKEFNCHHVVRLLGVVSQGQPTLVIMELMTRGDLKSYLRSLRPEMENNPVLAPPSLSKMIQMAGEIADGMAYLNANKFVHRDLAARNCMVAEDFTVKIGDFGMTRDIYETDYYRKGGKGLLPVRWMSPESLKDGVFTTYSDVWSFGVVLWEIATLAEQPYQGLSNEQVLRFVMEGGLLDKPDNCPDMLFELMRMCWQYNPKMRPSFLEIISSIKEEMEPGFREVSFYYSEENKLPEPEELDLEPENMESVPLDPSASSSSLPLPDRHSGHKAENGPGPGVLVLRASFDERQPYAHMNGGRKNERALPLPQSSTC
T3 sequence (P04629 33-796): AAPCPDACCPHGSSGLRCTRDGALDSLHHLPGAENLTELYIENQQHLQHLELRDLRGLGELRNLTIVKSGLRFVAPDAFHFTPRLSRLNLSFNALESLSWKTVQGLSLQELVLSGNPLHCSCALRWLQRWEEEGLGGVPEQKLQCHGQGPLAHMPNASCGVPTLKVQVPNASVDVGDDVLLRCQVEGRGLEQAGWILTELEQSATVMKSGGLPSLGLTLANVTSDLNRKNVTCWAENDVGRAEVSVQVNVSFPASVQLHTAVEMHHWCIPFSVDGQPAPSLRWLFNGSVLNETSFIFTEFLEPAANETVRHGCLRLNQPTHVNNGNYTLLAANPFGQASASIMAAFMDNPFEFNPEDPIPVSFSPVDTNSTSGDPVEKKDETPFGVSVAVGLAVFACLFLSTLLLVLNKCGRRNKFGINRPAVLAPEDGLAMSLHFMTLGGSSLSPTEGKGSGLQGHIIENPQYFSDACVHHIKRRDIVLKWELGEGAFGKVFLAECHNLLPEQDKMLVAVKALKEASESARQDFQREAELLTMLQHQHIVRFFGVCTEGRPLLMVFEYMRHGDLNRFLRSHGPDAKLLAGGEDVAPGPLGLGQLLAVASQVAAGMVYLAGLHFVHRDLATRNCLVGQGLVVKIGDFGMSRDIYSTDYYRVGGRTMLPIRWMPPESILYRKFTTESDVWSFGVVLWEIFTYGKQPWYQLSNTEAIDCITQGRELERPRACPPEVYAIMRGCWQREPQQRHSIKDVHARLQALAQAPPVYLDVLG
T6 sequence (P49137 whole entry): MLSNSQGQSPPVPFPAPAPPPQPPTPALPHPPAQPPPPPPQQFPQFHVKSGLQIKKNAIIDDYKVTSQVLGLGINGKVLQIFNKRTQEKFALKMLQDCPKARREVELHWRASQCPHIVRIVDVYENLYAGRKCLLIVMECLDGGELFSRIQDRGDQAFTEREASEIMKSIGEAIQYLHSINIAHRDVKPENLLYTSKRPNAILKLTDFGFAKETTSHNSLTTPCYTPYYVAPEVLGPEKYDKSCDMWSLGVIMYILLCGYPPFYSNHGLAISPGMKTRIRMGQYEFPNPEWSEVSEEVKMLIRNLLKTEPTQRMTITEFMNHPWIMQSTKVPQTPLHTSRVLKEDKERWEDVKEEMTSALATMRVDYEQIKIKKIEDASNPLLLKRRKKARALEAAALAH
T4 sequence (O00329 whole entry): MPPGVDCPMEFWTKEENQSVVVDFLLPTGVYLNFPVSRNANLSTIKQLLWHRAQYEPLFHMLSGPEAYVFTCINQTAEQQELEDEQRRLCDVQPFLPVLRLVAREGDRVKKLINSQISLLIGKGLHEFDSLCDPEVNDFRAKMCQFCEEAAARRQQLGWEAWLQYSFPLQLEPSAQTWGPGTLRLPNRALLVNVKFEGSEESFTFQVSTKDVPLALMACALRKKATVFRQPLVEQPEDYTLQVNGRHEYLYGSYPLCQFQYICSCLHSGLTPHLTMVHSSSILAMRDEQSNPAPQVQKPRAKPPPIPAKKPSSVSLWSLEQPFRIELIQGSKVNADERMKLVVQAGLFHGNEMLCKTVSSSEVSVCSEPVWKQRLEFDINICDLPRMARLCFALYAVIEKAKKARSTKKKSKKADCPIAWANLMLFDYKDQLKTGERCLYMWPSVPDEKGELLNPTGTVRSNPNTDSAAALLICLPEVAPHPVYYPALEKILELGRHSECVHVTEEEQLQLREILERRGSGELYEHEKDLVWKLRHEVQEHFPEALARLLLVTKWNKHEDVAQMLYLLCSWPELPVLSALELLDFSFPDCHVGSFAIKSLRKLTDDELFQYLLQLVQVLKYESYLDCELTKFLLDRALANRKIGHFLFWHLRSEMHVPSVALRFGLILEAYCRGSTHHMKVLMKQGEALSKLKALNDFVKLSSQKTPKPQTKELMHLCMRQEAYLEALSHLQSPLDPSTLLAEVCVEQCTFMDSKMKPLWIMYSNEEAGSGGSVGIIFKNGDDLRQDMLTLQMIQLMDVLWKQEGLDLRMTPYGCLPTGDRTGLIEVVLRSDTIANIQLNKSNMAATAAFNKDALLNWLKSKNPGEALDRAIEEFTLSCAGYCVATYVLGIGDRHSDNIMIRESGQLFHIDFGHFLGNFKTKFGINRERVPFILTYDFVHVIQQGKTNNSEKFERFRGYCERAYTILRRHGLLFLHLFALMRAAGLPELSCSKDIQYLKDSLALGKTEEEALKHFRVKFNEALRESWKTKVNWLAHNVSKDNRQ
T4 sequence (P27986 whole entry partner): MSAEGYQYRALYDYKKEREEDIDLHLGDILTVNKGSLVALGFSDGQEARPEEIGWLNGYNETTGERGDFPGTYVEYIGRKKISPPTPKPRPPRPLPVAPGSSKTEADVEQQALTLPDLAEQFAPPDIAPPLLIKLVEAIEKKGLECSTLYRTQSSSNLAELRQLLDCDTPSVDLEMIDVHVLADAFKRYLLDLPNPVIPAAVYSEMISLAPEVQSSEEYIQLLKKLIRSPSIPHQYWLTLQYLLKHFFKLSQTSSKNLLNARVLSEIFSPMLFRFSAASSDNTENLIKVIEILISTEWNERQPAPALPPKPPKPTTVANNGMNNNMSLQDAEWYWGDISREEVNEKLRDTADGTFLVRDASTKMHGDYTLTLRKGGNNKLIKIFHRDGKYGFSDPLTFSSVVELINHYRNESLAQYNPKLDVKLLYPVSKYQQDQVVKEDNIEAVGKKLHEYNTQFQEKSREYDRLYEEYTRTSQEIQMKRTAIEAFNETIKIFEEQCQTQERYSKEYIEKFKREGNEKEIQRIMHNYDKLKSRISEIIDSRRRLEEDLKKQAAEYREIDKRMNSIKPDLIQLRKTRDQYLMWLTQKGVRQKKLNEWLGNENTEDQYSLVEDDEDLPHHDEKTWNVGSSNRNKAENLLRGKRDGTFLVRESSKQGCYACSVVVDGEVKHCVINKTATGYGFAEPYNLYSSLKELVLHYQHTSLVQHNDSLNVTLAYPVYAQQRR

Structure (SMILES): FC(F)(F)c1cccc(Cc2ccc(C3CN(Cc4cccnc4)CCO3)nc2)c1 (centres unmarked) [Compound 5, 4-(pyridin-3-ylmethyl)-2-(5-(3-(trifluoromethyl)benzyl)pyridin-2-yl)morpholine]
agonist-induced pMLC activation ([1]; contractile agonists carbachol or histamine, FIGS. 6A-6B): inactive | inhibition of AKT phosphorylation (pAKT) by agonists ([2]; contractile agonists carbachol or histamine): inactive

Structure (SMILES): CC(C)(NC(=O)Cc1ccccc1F)C(=O)N1CCOCC(Cc2cccc3ccncc23)C1 (centres unmarked) [BDH, 2-(2-fluorophenyl)-N-(1-(6-(isoquinolin-8-ylmethyl)-1,4-oxazepan-4-yl)-2-methyl-1-oxopropan-2-yl)acetamide, reference compound]
modulation of Gα12 luciferase reporter signal (agonist/antagonist) (Gα12): dose-dependent activation

Structure (SMILES): Cc1ccc(Cc2ccc(C3CN(C(=O)c4cnc(C)cn4)CCO3)nc2)cc1 (centres unmarked) [Compound 2, (2-(5-(4-methylbenzyl)pyridin-2-yl)morpholino)(5-methylpyrazin-2-yl)methanone]
modulation of Gα12 luciferase reporter signal (agonist/antagonist) (Gα12): Gα12 antagonists | agonist specificity of the effect on pMLC activation [1]: specific for carbachol rather than histamine | potency and efficacy on carbachol-induced pMLC activation [1]: improved potency and efficacy

Structure (SMILES): CCN1CCC(CC(=O)N2CCOC(c3ccc(-c4cccc(OC)c4)cn3)C2)CC1 (centres unmarked) [Compound 3, 2-(1-ethylpiperidin-4-yl)-1-(2-(5-(3-methoxyphenyl)pyridin-2-yl)morpholino)ethan-1-one]
modulation of Gα12 luciferase reporter signal (agonist/antagonist) (Gα12): Gα12 antagonists | agonist specificity of the effect on pMLC activation [1]: specific for carbachol rather than histamine | pMLC ([1]; compound at 10 μM (FIGS. 4C-4D)): decrease; also recorded: significantly decreased | pMLC [1, 3]: decrease; also recorded: significantly decreased | potency and efficacy on carbachol-induced pMLC activation [1]: improved potency and efficacy | pAKT ([2]; compound at 10 μM (FIGS. 4A-4B)): decrease; also recorded: significantly decreased | pAKT [2, 4]: decrease; also recorded: significantly decreased

specificity: effect on the overwhelming majority of the 113 human kinases (113 unique human kinases): little to no effect | number of kinases exhibiting dose dependent inhibition (113 unique human kinases; of 113 human kinases): 7 | number of kinases with agonism observed (113 unique human kinases; of 113 human kinases, none relevant in human airway smooth muscle): 4 | activity at 1 µM (IGF-1R(h); compound at 1 μM): 103% | activity at 10 µM (IGF-1R(h); compound at 10 μM): 91% | activity at 100 µM (IGF-1R(h); compound at 100 μM): 61% | activity at 1 µM (TrkA(h); compound at 1 μM): 106% | activity at 10 µM (TrkA(h); compound at 10 μM): 123% | activity at 100 µM (TrkA(h); compound at 100 μM): 41% | Aggregate Mean (of raw counts) (PI3Kδ; compound at 1 μM): 16175 | activity at 1 µM (PI3Kδ; compound at 1 μM, read-out: Kinase Activity (%), mean of replicates): 91% | Raw Counts (PI3Kδ; compound at 1 μM, single replicates): 15209.80926 and 17139.70182 | Kinase Activity (%) (PI3Kδ; compound at 1 μM, single replicates, 1 µM): 86% | activity at 1 µM (PI3Kδ; compound at 1 μM, single replicates, read-out: Kinase Activity (%)): 95% | Aggregate Mean (of raw counts) (PI3Kδ; compound at 10 μM): 15960 | activity at 10 µM (PI3Kδ; compound at 10 μM, read-out: Kinase Activity (%), mean of replicates): 92% | Raw Counts (PI3Kδ; compound at 10 μM, single replicates): 15948.27586 and 15971.06288 | activity at 10 µM (PI3Kδ; compound at 10 μM, single replicates, read-out: Kinase Activity (%)): 92% | Aggregate Mean (of raw counts) (PI3Kδ; compound at 100 μM): 17900 | activity at 100 µM (PI3Kδ; compound at 100 μM, read-out: Kinase Activity (%), mean of replicates): 83% | Raw Counts (PI3Kδ; compound at 100 μM, single replicates): 17495.26814 and 18305.46265 | Kinase Activity (%) (PI3Kδ; compound at 100 μM, single replicates, 100 µM): 81% | activity at 100 µM (PI3Kδ; compound at 100 μM, single replicates, read-out: Kinase Activity (%)): 85% | activity at 1 µM (mTOR(h); compound at 1 μM): 103% | activity at 10 µM (mTOR(h); compound at 10 μM): 104% | activity at 100 µM (mTOR(h); compound at 100 μM): 70% | MAPKAP-K2 inhibition, dose dependence (MAPKAP-K2(h); 1, 10 and 100 μM): inhibited in a dose-dependent manner | activity at 1 µM (MAPKAP-K2(h); compound at 1 μM, read-out: MAPKAP-K2(h) kinase activity (human kinase inhibition data)): 90% | activity at 10 µM (MAPKAP-K2(h); compound at 10 μM, read-out: MAPKAP-K2(h) kinase activity (human kinase inhibition data)): 77% | activity at 100 µM (MAPKAP-K2(h); compound at 100 μM, read-out: MAPKAP-K2(h) kinase activity (human kinase inhibition data)): 65% | PRAK/MAPKAPK5 inhibition, dose dependence (PRAK(h)/MAPKAPK5; 1, 10 and 100 μM): inhibited in a dose-dependent manner | activity at 1 µM (PRAK(h)/MAPKAPK5; compound at 1 μM, read-out: PRAK(h)/MAPKAPK5 kinase activity (human kinase inhibition data)): 115% | activity at 10 µM (PRAK(h)/MAPKAPK5; compound at 10 μM, read-out: PRAK(h)/MAPKAPK5 kinase activity (human kinase inhibition data)): 92% | activity at 100 µM (PRAK(h)/MAPKAPK5; compound at 100 μM, read-out: PRAK(h)/MAPKAPK5 kinase activity (human kinase inhibition data)): 40% | activity at 1 µM (ATR/ATRIP(h); compound at 1 μM): 101% | activity at 10 µM (ATR/ATRIP(h); compound at 10 μM): 91% | activity at 100 µM (ATR/ATRIP(h); compound at 100 μM): 65% | activity at 1 µM (Fms(h); compound at 1 μM): 95% | activity at 10 µM (Fms(h); compound at 10 μM): 94% | activity at 100 µM (Fms(h); compound at 100 μM): 64%
Structure (SMILES): O=C(CCn1ncc2ccccc21)N1CCOC(c2ccc(Cc3ccc(F)cc3)cn2)C1 (centres unmarked) [compound 1, 1-(2-(5-(4-fluorobenzyl)pyridin-2-yl)morpholino)-3-(1H-indazol-1-yl)propan-1-one]
modulation of Gα12 luciferase reporter signal (agonist/antagonist) (Gα12): inhibition | pMLC [1, 3]: decreased | pAKT [2, 4]: decreased
